Results: US20120129842A1, “BISTHIAZOLE INHIBITORS OF PRO-MATRIX METALLOPROTEINASE ACTIVATION” (priority 2010, published 2012)
Where a name gives a salt, the structure may show the parent alone.

How the values were obtained:
[1] = biological target: T1, full-length proMMP9(1-707) (SEQ ID NO:1) (Homo sapiens, UniProt P14780, R574P); assay: proMMP9/MMP3 P126 Activation Assay; assay type: biochemical; conditions: 20 nM proMMP9, 20 nM MMP3, 80 min 37° C.
T1 construct: made in house; host or cells: HEK293 (proMMP9, secreted); E. coli (MMP3)
Procedure: The reaction volume was 50 μL. […] Reactivity of residual MMP3 towards P-126 substrate was minimal under these conditions.

[2] = biological target: T2, proMMP9(67-444;ΔFnII) (SEQ ID NO:5) (Homo sapiens, UniProt P14780, DEL216-390); assay: ThermoFluor binding assay with proMMP9(67-444;ΔFnII); conditions: pH 7.0
T2 construct: start methionine (N); made in house; host or cells: E. coli BL21(DE3) RIL
T2 sequence (P14780 with tags, fused parts or gaps DEL216-390): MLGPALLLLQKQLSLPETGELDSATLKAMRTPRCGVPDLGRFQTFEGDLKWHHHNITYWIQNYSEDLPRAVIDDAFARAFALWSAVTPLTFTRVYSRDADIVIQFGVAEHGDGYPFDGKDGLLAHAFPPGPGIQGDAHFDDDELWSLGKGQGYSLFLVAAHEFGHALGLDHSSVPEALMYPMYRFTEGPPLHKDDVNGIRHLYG
Procedure: (§1) The ThermoFluor® (TF) assay is a 384-well plate-based binding assay that measures thermal stability of proteins (Biomol Screen 2001, 6, 429-40; Biochemistry 2005, 44, 5258-66). The experiments were carried out using instruments available from Johnson & Johnson Pharmaceutical Research & Development, LLC. TF dye used in all experiments was […] (1,8-ANS) (Invitrogen: A-47).
(§2) Compounds were arranged in a pre-dispensed plate (Greiner Bio-one: 781280), wherein compounds were serially diluted in 100% DMSO across 11 columns within a series. Columns 12 and 24 were used as DMSO reference and contained no compound. For multiple compound concentration-response experiments, the compound aliquots ([…]) were robotically predispensed directly into black 384-well polypropylene PCR microplates (Abgene: TF-0384/k) using a Cartesian Hummingbird liquid handler (DigiLab, Holliston, Mass.). Following compound dispense, protein and dye solutions were added to achieve the final assay volume of 3 μL. The assay solutions were overlayed with 1 μL of silicone oil (Fluka, type DC 200: 85411) to prevent evaporation.
(§3) Assay plates were robotically loaded onto a thermostatically controlled PCR-type thermal block and then heated from 40 to 90° C. at a ramp-rate of 1° C./min for all experiments. Fluorescence was measured by continuous illumination with UV light (Hamamatsu LC6) supplied via fiber optics and filtered through a band-pass filter (380-400 nm; >6 OD cutoff). Fluorescence emission of the entire 384-well plate was detected by measuring light intensity using a CCD camera (Sensys, Roper Scientific) filtered to detect 500±25 nm, resulting in simultaneous and independent readings of all 384 wells. A single image with 20-sec exposure time was collected at each temperature, and the sum of the pixel intensity in a given area of the assay plate was recorded vs temperature and fit to standard equations to yield the Tm (J Biomol Screen 2001, 6, 429-40).
(§4) Thermodynamic parameters necessary for fitting compound binding for each proMMP were estimated by differential scanning calorimetry (DSC) and from ThermoFluor® data. The heat capacity of unfolding for each protein was estimated from the molecular weight and from ThermoFluor® dosing data.
The protein sample preparations had to include a desalting buffer exchange step via a PD-10 gravity column (GE Healthcare). The desalting buffer exchange was performed prior to diluting the protein to the final assay concentration of 3.5 μM proMMP9(67-444;ΔFnII) (SEQ ID NO:5). The concentration of proMMP9(67-444;ΔFnII) (SEQ ID NO:5) was determined spectrophotometrically based on a calculated extinction coefficient of ε280=33900 M^−1cm^−1, a calculated molecular weight of 22.6 kDa, and calculated pI of 5.20. ThermoFluor® reference conditions were defined as follows: 80 μg/mL (3.5 μM) proMMP9(67-444;ΔFnII) (SEQ ID NO:5), 50 μM 1,8-ANS, pH 7.0 Buffer (50 mM HEPES pH 7.0, 100 mM NaCl, 0.001% Tween-20, 2.5 mM MgCl2, 300 μM CaCl2). The thermodynamic parameters for proMMP9(67-444;ΔFnII) (SEQ ID NO:5) are as follows: Tm (° C.)=63 (+/−0.1), ΔUH(Tm) (cal mol^−1)=105000(+/−5000), ΔUS(Tm) (cal mol^−1 K^−1)=[…], ΔUCp (cal mol^−1 K^−1)=2000.

[3] = biological target: T3, proMMP9(20-445;ΔFnII) (SEQ ID NO:6) (Homo sapiens, UniProt P14780, DEL216-390); assay: ThermoFluor binding assay with proMMP9(20-445;ΔFnII); conditions: pH 7.0
T3 construct: start methionine (N); made in house; host or cells: E. coli BL21(DE3) RIL
T3 sequence (P14780 with tags, fused parts or gaps DEL216-390): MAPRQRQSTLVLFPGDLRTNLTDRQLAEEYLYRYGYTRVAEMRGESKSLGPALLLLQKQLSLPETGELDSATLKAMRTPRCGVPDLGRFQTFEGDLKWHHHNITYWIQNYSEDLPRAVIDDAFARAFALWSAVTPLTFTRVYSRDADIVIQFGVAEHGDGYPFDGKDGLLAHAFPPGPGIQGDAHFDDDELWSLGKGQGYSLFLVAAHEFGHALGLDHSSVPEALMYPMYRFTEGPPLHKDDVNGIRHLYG
Procedure: as §1, §2, §3, §4
The protein sample preparations included a desalting buffer exchange step via a PD-10 gravity column (GE Healthcare). The desalting buffer exchange was performed prior to diluting the protein to the final assay concentration of 2.8 μM proMMP9(20-445;ΔFnII) (SEQ ID NO:6). The concentration of proMMP9(20-445;ΔFnII) (SEQ ID NO:6) was determined spectrophotometrically based on a calculated extinction coefficient of ε280=39880 M^−cm^−1, a calculated molecular weight of 28.2 kDa, and calculated pI of 5.5. ThermoFluor® reference conditions were define as follows: 80 μg/mL (2.8 μM) proMMP9(20-445;ΔFnII) (SEQ ID NO:6), 50 μM 1,8-ANS, pH 7.0 Buffer (50 mM HEPES pH 7.0, 100 mM NaCl, 0.001% Tween-20, 2.5 mM MgCl2, 300 μM CaCl2). The thermodynamic parameters for proMMP9(20-445;ΔFnII) (SEQ ID NO:6) are as follows: Tm (° C.)=72 (+/−0.1), ΔUH(Tm) (cal mol^−1)=160000(+/−5000), ΔUS(Tm) (cal mol^−1 K^−1)=434, ΔUCp (cal mol^−1 K^−)=2400.

T1 sequence (P14780 20-707 R574P): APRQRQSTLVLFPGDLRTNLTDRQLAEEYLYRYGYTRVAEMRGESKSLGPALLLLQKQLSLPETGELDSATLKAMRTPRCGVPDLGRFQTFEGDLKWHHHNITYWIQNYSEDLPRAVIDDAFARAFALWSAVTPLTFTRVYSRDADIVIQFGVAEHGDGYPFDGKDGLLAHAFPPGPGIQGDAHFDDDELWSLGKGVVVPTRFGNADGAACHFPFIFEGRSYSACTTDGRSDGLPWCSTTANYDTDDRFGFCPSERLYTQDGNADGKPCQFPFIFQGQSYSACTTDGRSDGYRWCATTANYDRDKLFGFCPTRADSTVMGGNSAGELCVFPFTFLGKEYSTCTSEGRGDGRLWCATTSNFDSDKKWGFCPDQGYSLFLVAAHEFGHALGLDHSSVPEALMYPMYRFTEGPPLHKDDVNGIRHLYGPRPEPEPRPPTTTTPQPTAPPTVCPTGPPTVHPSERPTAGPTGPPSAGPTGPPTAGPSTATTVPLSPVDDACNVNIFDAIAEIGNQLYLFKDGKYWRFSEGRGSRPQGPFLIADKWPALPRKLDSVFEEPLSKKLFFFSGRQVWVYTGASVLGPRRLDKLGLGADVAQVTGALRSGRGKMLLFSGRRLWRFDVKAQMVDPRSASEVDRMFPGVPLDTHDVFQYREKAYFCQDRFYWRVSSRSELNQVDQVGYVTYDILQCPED

Row | SMILES | IC50 [1] | Kd [2] | Kd [3]
1 | CCC(C)Oc1ccc(C(N)=O)cc1Nc1nc(-c2sc(C)nc2C)cs1 (racemic) [Example 14, (±)-4-sec-Butoxy-3-(2′,4′-dimethyl-[4,5′]bithiazolyl-2-ylamino)-benzamide.TFA] | 4.7 µM | 7 µM | 0.57 µM
2 | CC(=O)Nc1nc(C)c(-c2csc(Nc3cccc4cc(C)oc34)n2)s1 [Example 9, N-[4′-Methyl-2-(2-methyl-benzofuran-7-ylamino)-[4,5′]bithiazolyl-2′-yl]-acetamide] | 3.6 µM | – | –
3 | CC(=O)Nc1nc(C)c(-c2csc(Nc3cccc4c3OC(F)(F)O4)n2)s1 [Example 10, N-[2-(2,2-Difluoro-benzo[1,3]dioxol-4-ylamino)-4′-methyl-[4,5′]bithiazolyl-2′-yl]-acetamide] | 5.6 µM | – | –
4 | Cc1nc(C)c(-c2csc(Nc3cc(C(N)=O)ccc3OC(C)(C)C)n2)s1 [Example 12, 4-tert-Butoxy-3-(2′,4′-dimethyl-[4,5′]bithiazolyl-2-ylamino)-benzamide] | 2.5 µM | 15 µM | 1.9 µM
5 | Cc1nc(C)c(-c2csc(Nc3cc(C(N)=O)ccc3OCC(F)(F)F)n2)s1 [Example 16, 3-(2′,4′-Dimethyl-[4,5′]bithiazolyl-2-ylamino)-4-(2,2,2-trifluoro-ethoxy)-benzamide] | 1.3 µM | 2.1 µM | 0.24 µM
6 | CCN(CC)S(=O)(=O)c1ccc(OC)c(Nc2nc(-c3sc(NC(C)=O)nc3C)cs2)c1 [Example 20, N-[2-(5-Diethylsulfamoyl-2-methoxy-phenylamino)-4′-methyl-[4,5]bithiazolyl-2′-yl]-acetamide] | – | 6.7 µM | 21 µM
7 | COc1ccc(C(F)(F)F)cc1Nc1nc(-c2sc(N)nc2C)cs1 [Example 22, N^2-(2-Methoxy-5-trifluoromethyl-phenyl)-4′-methyl-[4,5′]bithiazolyl-2,2′-diamine.HBr] | – | 1.6 µM | 6.4 µM
8 | COc1ccc(C(N)=O)cc1Nc1nc(-c2cnc(N)s2)cs1 [Example 27, 3-(2′-Amino-[4,5′]bithiazolyl-2-ylamino)-4-methoxy-benzamide.HBr] | 5.2 µM | 2.8 µM | 1 µM
9 | COc1cc(C(N)=O)ccc1Nc1nc(-c2sc(C)nc2C)cs1 [Example 35, 4-(2′,4′-Dimethyl-[4,5′]bithiazolyl-2-ylamino)-3-methoxy-benzamide] | – | 3.9 µM | 14 µM
10 | COc1cc(C)c(C(N)=O)cc1Nc1nc(-c2sc(N3CCN(C)CC3)nc2C)cs1 [Example 37, 4-Methoxy-2-methyl-5-[4′-methyl-2′-(4-methyl-piperazin-1-yl)-[4,5]bithiazolyl-2-ylamino]-benzamide.HCl] | 3.6 µM | 7.2 µM | 0.57 µM
11 | Cc1nc(C)c(-c2csc(Nc3cc(C(N)=O)ccc3CC(C)C)n2)s1 [Example 38, 3-(2′,4′-Dimethyl-[4,5′]bithiazolyl-2-ylamino)-4-isobutyl-benzamide.TFA] | 0.8 µM | – | 0.55 µM
12 | COc1cc(Nc2nc(-c3sc(C)nc3C)cs2)c2ncccc2c1 [Example 41, (2′,4′-Dimethyl-[4,5′]bithiazolyl-2-yl)-(6-methoxy-quinolin-8-yl)-amine.TFA] | ~13 µM | 61 µM | 84 µM
13 | Cc1nc(C)c(-c2csc(Nc3cccc4cccnc34)n2)s1 [Example 42, (2′,4′-Dimethyl-[4,5′]bithiazolyl-2-yl)-quinolin-8-yl-amine.TFA] | 9.1 µM | 52 µM | > 95 µM
14 | COc1ccc(S(N)(=O)=O)cc1Nc1nc(-c2sc(N)nc2C)cs1 [Example 52, 3-(2′-Amino-4′-methyl-[4,5′]bithiazolyl-2-ylamino)-4-methoxy-benzenesulfonamide.HBr] | 1.2 µM | 1.6 µM | 0.87 µM
15 | COc1ccc(S(N)(=O)=O)cc1Nc1nc(-c2sc(NC(C)=O)nc2C)cs1 [Example 53, N-[2-(2-Methoxy-5-sulfamoyl-phenylamino)-4′-methyl-[4,5′]bithiazolyl-2′-yl]-acetamide.HBr] | 1.9 µM | 1.2 µM | 1.5 µM
16 | COc1ccc(C(=O)NCc2ccccc2)cc1Nc1nc(-c2sc(N)nc2C)cs1 [Example 56, 3-(2′-Amino-4′-methyl-[4,5′]bithiazolyl-2-ylamino)-N-benzyl-4-methoxy-benzamide.TFA] | 12 µM | 2.3 µM | 1.3 µM
17 | COc1ccc([N+](=O)[O-])cc1Nc1nc(-c2sc(N)nc2C)cs1 [Example 67, N^2-(2-Methoxy-5-nitro-phenyl)-4′-methyl-[4,5′]bithiazolyl-2,2′-diamine.HBr] | 0.45 µM | 0.087 µM | 0.56 µM
18 | Cc1nc(C)c(-c2csc(Nc3cc(C#N)ccc3OC(C)C)n2)s1 [Example 72, 3-(2′,4′-Dimethyl-[4,5′]bithiazolyl-2-ylamino)-4-isopropoxy-benzonitrile.HBr] | 1 µM | 1.2 µM | 8.6 µM
19 | CC(=O)Nc1nc(C)c(-c2csc(Nc3cc(C#N)ccc3OC(C)C)n2)s1 [Example 73, N-[2-(5-Cyano-2-isopropoxy-phenylamino)-4′-methyl-[4,5′]bithiazolyl-2′-yl]-acetamide.HBr] | 0.52 µM | 0.33 µM | 4.3 µM
20 | Cc1nc(C2CCN(C)CC2)sc1-c1csc(Nc2cc(S(N)(=O)=O)ccc2OC(C)C)n1 [Example 156, 4-Isopropoxy-3-((4′-methyl-2′-(1-methylpiperidin-4-yl)-[4,5′-bithiazol]-2-yl)amino)benzenesulfonamide.TFA] | 0.067 µM | – | –
21 | CCOc1ccncc1Nc1nc(-c2sc(C3CCN(C)CC3)nc2C)cs1 [Example 158, N-(4-Ethoxypyridin-3-yl)-4′-methyl-2′-(1-methylpiperidin-4-yl)-[4,5′-bithiazol]-2-amine.TFA] | 0.29 µM | – | –
